System: ApoB-100-associated lipoproteins released from HepG2 cells
Experiment: Inhibition of the release of ApoB-100-associated lipoproteins from cultured hepatic HepG2 cells (immunoassay for human LDL)
Assay type: cell-based
Settings: HepG2 cells; culture supernatant; absorption at 450 nm inhibited by 50% vs solvent control; read-out: Apo B IC50
Procedure: 1. Inhibition of the Release of ApoB-100-associated Lipoproteins
The test for detection of the inhibition of the release of ApoB-100-associated lipoproteins from hepatic cells was carried out in vitro with cultured hepatic cells, preferably with cells of the human line HepG2. These cells are cultured under standard conditions in medium for culture of eukaryotic cells, preferably in RPMI 1640 with 10% foetal calf serum. HepG2 cells synthesize and secrete into the culture supernatant ApoB-100-associated lipoprotein particles, which are in principle built up similarly to the VLDL and LDL particles which are to be found in plasma.
These particles can be detected with an immunoassay for human LDL. This immunoassay is carried out with antibodies which have been induced against human LDL in rabbits under standard conditions. The anti-LDL antibodies (rab-anti-LDL-Ab) were purified by affinity chromatography on an immunosorbent with human LDL. These purified rab-anti-LDL-Ab are adsorbed onto the surface of plastic. This adsorption is expediently carried out on the plastic surface of microtiter plates with 96 wells, preferably on MaxiSorp plates. If ApoB-100-associated particles are present in the supernatant of Hep-G2 cells, these can bond to the insolubilized rab-anti-LDL-Ab, and an immune complex bonded to the plastic surface is formed. Non-bonded proteins are removed by washing The immune complex on the plastic source is detected with monoclonal antibodies, which have been induced against human LDL and purified under standard conditions. These antibodies were conjugated with the enzyme peroxidase. Peroxidase converts the colourless substrate TMB into a coloured product in the presence of H2 O2. After acidification of the reaction mixture with H2 SO4, the specific absorption of light is determined at 450 nm, this being a measure of the amount of ApoB-100-associated particles wich had been secreted by the HepG2 cells into the culture supernatant.
The IC50 value indicates the concentration of substance at which the absorption of light is inhibited by 50% compared with the control (solvent control without the substance).

| SMILES | IC50 [nM] |
| --- | --- |
| O=C(CSc1nc2ccccc2n1Cc1ccc(C(C(=O)N[C@@H](CO)c2ccccc2)C2CCCC2)cc1)c1ccccc1 (single isomer, unassigned) [Example 18] | 930 |
| O=C(N[C@@H](CO)c1ccccc1)C(c1ccc(Cn2c(-c3cscn3)nc3ccccc32)cc1)C1CCCCCC1 (single isomer, unassigned) [Example 31] | 7.3 |

Same assay, conditions: Homo sapiens, HepG2, HepG2 cells; culture supernatant; absorption at 450 nm inhibited by 50% vs solvent control; read-out: Apo B IC50

| SMILES | IC50 [nM] |
| --- | --- |
| O=C(N[C@@H](CO)c1ccccc1)C(c1ccc(Cn2c(-c3ccccn3)nc3ccccc32)cc1)C1CCCC1 (stereo partly shown) [Example 44] | 11.3 |
| O=C(N[C@@H](CO)c1ccccc1)C(c1ccc(Cn2c(SCc3ccccc3)nc3ccccc32)cc1)C1CCCC1 (stereo partly shown) [Example 11] | 4.7 |
| O=C(N[C@@H](CO)c1ccccc1)C(c1ccc(CN2C(=O)c3ccncc3C2=O)cc1)C1CCCCCC1 (stereo partly shown) [Example 63] | 5.9 |
| O=C(N[C@@H](CO)c1ccccc1)C(c1ccc(Cn2c(-c3cscn3)nc3ccccc32)cc1)C1CCCCCC1 (stereo partly shown) [Example 29] | 9.3 |
| O=C(N[C@@H](CO)c1ccccc1)C(c1ccc(Cn2c(=S)[nH]c3ccccc32)cc1)C1CCCCCC1 (stereo partly shown) [Example 52] | 518 |
